Columns and labels:
Format in all cases: functional
Botrytis cinerea [1] = assay: Antifungal activity against Benzimidalzole-resistant Botryotinia fuckeliana isolate Bc-20 infected compound-treated kidney bean leaves at 50 ppm after 4 days
Botrytis cinerea [2] = assay: Antifungal activity against Benzimidalzole-resistant Botryotinia fuckeliana isolate Bc-20 infected compound-treated kidney bean leaves at 200 ppm after 4 days
Cercospora beticola = assay: Antifungal activity against Benzimidalzole-resistant Cercospora beticola isolate Cb-19 infected in sugar beet seedlings at 50 ppm applied as soil drench 3 days prior to inoculation
Botrytis cinerea [3] = assay: Antifungal activity against Benzimidalzole-resistant Botryotinia fuckeliana isolate Bc-44 infected compound-treated kidney bean leaves at 0.8 ppm after 4 days

SMILES	Activity (Botrytis cinerea [1]) [%]	Activity (Botrytis cinerea [2]) [%]	Activity (Cercospora beticola) [%]	Activity (Botrytis cinerea [3]) [%]
C#CCOc1c(Cl)cc(N/C=N/OC)cc1Cl	6	11		
C#CCOc1cc(N/C=N/OC)cc(Cl)c1OCC#C			68	75

From ChEMBL document CHEMBL3046025, “Fungitoxic Properties of N-Phenylformamidoximes in Control of Benzimidazole-Resistant Isolates of Fungi” (1992)
